The record followed here is US20240158391A1, “DERIVATIVES OF 4-(IMIDAZO[1,2-A]PYRIDIN-3-YL)-N-(PYRIDIN-3-YL) PYRIMIDIN-2- AMINE FOR TREATING PROLIFERATIVE DISEASES AND CONDITIONS” (AUCENTRA THERAPEUTICS PTY LTD, priority 2019, published 2024).

The target of one assay is CDK1/CyclinB (Homo sapiens, UniProt P06493). As to the kind of experiment: ADP Glo kinase assay, CDK1/CyclinB. The class given is biochemical. Particulars: for remaining activity at 1 µM: compound at 1 μM, read-out: Residual enzymatic activity (%) at 1 μM, CDK1 B. Summed up: (§1)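 Test compounds were run as 1:3 serial dilutions over 10 concentrations (10-0.0005 μM) in 0.5% DMSO. Kinase reactions proceeded for an optimised time at room temperature before being stopped with ADP Glo reagent.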
Background: In ADP-Glo the light output rises with the ADP produced.

The next assay addresses CDK2/CyclinA2 (Homo sapiens, UniProt P24941). Briefly: ADP Glo kinase assay, CDK2/CyclinA2. Type of assay: biochemical. To be noted: for pKi: Km ATP, read-out: Enzymatic inhibition, Ki, CDK2 A; for remaining activity at 1 µM: compound at 1 μM, read-out: Residual enzymatic activity (%) at 1 μM, CDK2 A. Summed up: as §1
The target in another assay is CDK4/CyclinD1 (Homo sapiens, UniProt P11802). As to the kind of experiment: ADP Glo kinase assay, CDK4/CyclinD1. Type of assay: biochemical. Particulars: for remaining activity at 1 µM: compound at 1 μM, read-out: Residual enzymatic activity (%) at 1 μM, CDK4 D1. On the procedure: Test compounds are used in 1:3 serial dilutions for 10 concentrations (from 10-0.0005 μM) in 0.5% DMSO. […] The kinase reactions are run for optimised time period at room temperature and then the reaction is stopped by adding 5 μL of ADP Glo reagent.

In the next assay the target is CDK6/CyclinD3 (Homo sapiens, UniProt Q00534). As to the kind of experiment: ADP Glo kinase assay, CDK6/CyclinD3. Type of assay: biochemical. To be noted: for pKi: Km ATP, read-out: Enzymatic inhibition, Ki, CDK6 D3; for remaining activity at 1 µM: compound at 1 μM, read-out: Residual enzymatic activity (%) at 1 μM, CDK6 D3. The procedure, abridged:
as §1

Another assay deals with CDK7/CyclinH/Mat1 (Homo sapiens, UniProt P50613). As to the kind of experiment: ADP Glo kinase assay, CDK7/CyclinH/Mat1. To be noted: for pKi: Km ATP, read-out: Enzymatic inhibition, Ki, CDK7 H; for remaining activity at 1 µM: compound at 1 μM, read-out: Residual enzymatic activity (%) at 1 μM, CDK7 H. Type of assay: biochemical. Summed up: as §1
The target in the next assay is CDK9/CyclinT1 (Homo sapiens, UniProt P50750). Briefly: ADP Glo kinase assay, CDK9/CyclinT1. Type of assay: biochemical. Particulars: CDK9/CyclinT1; Km ATP; read-out: Enzymatic inhibition, Ki, CDK9 T1. Summed up:
as §1

A further assay concerns the target T1, FLT3-ITD (Homo sapiens, UniProt P36888).
T1 sequence (P36888 1-993): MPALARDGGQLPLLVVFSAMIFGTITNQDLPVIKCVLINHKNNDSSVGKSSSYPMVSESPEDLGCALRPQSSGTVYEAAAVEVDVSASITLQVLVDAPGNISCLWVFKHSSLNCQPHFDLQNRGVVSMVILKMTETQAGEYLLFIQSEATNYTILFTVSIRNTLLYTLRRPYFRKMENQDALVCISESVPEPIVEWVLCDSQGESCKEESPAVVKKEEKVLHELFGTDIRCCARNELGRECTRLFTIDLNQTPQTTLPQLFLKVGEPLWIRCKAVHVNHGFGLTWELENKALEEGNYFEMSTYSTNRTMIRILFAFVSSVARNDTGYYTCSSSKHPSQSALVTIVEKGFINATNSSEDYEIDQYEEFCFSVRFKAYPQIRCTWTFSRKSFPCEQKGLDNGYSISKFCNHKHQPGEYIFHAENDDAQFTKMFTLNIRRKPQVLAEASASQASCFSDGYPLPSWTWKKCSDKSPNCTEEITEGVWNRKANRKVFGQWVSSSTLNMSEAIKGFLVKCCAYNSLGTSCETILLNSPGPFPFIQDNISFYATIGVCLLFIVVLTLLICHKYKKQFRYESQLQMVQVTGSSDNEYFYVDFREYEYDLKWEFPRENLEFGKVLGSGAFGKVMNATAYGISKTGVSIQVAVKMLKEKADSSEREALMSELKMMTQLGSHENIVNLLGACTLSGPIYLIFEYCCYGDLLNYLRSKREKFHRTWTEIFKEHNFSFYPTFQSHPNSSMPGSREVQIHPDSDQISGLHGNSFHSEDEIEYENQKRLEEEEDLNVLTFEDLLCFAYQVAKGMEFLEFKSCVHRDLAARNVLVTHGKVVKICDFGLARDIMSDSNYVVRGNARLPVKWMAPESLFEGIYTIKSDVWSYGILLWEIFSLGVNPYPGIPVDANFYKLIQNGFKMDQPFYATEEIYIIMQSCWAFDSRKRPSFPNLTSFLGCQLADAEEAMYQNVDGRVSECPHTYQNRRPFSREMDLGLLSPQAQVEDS
Briefly: ADP Glo kinase assay, FLT3-ITD. Type of assay: biochemical. Particulars: for pKi: Km ATP 100 μM, read-out: Enzymatic inhibition, Ki, FLT3-ITD. Summed up: as §1

Another assay deals with MV-4-11. As to the kind of experiment: Proliferation assay (resazurin, leukemia cell lines), MV-4-11. Type of assay: cell-based. Particulars: Homo sapiens, MV4-11, read-out: 72 h Growth inhibition GI50, MV-4-11 cells. From the text:
The following compounds were used as comparators.
(In general: Resazurin is reduced to fluorescent resorufin, in cell work by metabolically active cells.)

pKi: −log10 of the molar value.

CDK1/CyclinB, sequence (P06493 whole entry, species assumed): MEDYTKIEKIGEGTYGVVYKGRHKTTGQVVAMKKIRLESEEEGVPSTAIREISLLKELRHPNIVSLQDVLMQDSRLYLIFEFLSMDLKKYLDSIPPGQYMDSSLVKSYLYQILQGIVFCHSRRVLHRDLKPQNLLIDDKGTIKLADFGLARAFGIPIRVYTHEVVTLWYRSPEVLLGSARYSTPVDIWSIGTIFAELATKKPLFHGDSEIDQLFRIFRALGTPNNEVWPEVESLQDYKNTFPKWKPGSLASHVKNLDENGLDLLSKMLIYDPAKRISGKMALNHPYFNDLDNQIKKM
CDK1/CyclinB, sequence (P14635 whole entry partner, species assumed): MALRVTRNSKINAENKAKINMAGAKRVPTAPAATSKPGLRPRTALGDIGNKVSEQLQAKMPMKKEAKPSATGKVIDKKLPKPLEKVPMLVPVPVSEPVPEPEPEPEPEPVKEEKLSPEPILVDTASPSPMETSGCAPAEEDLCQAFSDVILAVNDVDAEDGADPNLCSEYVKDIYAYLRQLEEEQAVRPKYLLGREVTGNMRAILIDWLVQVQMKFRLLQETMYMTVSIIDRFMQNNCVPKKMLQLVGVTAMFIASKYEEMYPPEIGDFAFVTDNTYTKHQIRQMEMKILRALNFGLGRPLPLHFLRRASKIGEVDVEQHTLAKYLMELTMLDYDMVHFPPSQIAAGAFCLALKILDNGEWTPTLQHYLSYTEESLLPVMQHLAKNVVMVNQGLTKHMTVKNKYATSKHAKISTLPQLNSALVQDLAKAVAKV
CDK9/CyclinT1, sequence (P50750 whole entry, species assumed): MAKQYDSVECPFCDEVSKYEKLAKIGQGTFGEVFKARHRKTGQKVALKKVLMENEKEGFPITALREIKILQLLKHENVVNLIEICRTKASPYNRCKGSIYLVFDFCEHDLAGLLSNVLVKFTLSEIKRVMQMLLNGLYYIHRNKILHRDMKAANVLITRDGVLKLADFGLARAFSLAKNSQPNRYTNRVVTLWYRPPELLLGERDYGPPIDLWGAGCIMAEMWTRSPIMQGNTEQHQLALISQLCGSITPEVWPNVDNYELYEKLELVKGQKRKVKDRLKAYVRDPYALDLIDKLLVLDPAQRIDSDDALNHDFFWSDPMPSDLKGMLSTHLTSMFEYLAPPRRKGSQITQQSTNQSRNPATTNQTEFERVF
CDK9/CyclinT1, sequence (O60563 whole entry partner, species assumed): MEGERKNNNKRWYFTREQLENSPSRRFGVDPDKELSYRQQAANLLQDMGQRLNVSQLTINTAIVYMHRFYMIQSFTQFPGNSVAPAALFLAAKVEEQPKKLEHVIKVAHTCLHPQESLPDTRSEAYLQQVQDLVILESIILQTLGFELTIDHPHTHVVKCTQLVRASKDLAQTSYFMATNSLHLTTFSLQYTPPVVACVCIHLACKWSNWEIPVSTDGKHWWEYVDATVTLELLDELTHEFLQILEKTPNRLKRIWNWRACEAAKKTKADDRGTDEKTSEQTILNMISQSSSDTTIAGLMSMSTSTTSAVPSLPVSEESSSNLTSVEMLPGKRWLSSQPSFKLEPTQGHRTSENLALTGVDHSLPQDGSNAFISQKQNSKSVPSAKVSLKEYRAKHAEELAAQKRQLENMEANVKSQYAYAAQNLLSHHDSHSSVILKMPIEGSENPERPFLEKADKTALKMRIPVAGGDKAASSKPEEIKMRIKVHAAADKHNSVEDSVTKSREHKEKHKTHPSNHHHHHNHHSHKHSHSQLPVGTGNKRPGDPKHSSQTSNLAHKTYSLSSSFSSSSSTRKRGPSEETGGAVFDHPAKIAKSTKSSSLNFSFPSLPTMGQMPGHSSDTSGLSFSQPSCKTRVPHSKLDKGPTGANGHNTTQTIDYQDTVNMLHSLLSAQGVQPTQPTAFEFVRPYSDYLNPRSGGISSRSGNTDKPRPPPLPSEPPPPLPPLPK
CDK7/CyclinH/Mat1, sequence (P50613 whole entry, species assumed): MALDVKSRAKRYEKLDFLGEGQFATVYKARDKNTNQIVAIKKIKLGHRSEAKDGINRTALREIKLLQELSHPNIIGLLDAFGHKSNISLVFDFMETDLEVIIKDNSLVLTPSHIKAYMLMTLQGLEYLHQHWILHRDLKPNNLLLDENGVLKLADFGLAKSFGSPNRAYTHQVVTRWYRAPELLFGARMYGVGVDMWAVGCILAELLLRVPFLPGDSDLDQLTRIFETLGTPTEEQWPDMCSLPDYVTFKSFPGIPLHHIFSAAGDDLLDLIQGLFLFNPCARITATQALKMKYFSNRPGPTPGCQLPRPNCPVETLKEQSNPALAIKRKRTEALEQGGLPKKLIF
CDK7/CyclinH/Mat1, sequence (P51946 whole entry partner, species assumed): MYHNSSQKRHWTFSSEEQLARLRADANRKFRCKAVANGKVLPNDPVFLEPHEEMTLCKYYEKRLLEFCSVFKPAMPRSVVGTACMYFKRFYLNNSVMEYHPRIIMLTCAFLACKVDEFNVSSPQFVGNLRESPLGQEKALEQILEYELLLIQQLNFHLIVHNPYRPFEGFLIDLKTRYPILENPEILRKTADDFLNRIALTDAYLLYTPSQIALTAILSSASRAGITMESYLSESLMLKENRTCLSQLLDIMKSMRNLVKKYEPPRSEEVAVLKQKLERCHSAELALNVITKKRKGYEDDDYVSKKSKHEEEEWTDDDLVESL
CDK7/CyclinH/Mat1, sequence (P51948 whole entry partner, species assumed): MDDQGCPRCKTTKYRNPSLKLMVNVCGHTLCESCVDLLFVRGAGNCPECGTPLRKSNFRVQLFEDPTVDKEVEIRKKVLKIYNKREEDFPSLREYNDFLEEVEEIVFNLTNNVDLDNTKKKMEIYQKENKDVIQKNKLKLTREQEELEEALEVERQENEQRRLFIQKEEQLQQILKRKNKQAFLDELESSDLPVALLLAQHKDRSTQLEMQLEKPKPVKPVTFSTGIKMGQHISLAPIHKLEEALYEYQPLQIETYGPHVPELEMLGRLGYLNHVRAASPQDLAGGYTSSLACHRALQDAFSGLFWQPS
CDK4/CyclinD1, sequence (P11802 whole entry, species assumed): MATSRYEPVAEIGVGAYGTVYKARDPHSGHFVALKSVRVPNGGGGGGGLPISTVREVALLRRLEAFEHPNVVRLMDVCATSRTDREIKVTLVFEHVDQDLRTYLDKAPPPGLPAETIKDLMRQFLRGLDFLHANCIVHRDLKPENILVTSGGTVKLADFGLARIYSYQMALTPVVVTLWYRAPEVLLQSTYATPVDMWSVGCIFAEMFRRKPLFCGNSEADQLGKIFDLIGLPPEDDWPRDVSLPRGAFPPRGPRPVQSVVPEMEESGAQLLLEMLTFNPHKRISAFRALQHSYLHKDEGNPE
CDK4/CyclinD1, sequence (P24385 whole entry partner, species assumed): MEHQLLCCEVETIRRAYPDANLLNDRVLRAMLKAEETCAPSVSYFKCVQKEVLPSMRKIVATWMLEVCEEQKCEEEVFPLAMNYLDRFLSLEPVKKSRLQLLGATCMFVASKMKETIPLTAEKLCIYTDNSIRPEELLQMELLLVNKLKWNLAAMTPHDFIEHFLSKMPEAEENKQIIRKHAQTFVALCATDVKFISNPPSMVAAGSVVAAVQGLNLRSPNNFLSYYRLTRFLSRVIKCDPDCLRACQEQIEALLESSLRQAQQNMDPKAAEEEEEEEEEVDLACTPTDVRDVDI
CDK6/CyclinD3, sequence (Q00534 whole entry, species assumed): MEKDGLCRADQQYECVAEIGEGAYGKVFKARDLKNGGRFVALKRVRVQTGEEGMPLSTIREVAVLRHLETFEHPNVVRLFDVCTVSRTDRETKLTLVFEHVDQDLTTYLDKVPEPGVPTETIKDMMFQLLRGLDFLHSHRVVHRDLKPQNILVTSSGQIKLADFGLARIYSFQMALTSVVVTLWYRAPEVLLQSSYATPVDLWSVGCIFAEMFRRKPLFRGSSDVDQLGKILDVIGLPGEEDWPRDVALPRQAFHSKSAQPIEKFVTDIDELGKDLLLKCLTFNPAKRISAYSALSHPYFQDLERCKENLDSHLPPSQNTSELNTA
CDK6/CyclinD3, sequence (P30281 whole entry partner, species assumed): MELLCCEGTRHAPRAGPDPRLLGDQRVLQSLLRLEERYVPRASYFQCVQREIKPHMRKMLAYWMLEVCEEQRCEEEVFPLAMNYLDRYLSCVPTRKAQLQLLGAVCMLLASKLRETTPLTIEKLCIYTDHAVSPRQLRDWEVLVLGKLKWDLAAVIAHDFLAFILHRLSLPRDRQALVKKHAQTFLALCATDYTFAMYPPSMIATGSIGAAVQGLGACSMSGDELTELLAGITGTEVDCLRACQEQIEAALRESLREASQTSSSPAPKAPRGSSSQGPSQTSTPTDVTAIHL

On to `CN1CCN(c2ccc(Nc3nccc(-c4cnc5ccc(-c6cncnc6)cn45)n3)cn2)CC1` [Compound 8, N-(6-(4-Methylpiperazin-1-yl)pyridin-3-yl)-4-(6-(pyrimidin-5-yl)imidazo[1,2-a]pyridin-3-yl)pyrimidin-2-amine], for which the pKi at CDK1/CyclinB (Km ATP, read-out: Enzymatic inhibition, Ki, CDK1 B) was under 5.30; at CDK2/CyclinA2, 5.54; at CDK4/CyclinD1 (Km ATP, read-out: Enzymatic inhibition, Ki, CDK4 D1), under 6.30; at CDK6/CyclinD3, under 5.30; at CDK7/CyclinH/Mat1, under 5.30; at CDK9/CyclinT1, 8.22. In addition, the pKi at FLT3-ITD was 7.51. The 50% growth inhibitory concentration (GI50) with MV-4-11 stood at 0.019 µM.

Take `Fc1cnc(Nc2ccc(N3CCN(CCN4CCOCC4)CC3)nc2)nc1-c1cnc2ccc(-c3ccccc3)cn12` [Compound 30, 5-Fluoro-N-(6-(4-(2-morpholinoethyl)piperazin-1-yl)pyridin-3-yl)-4-(6-phenylimidazo[1,2-a]pyridin-3-yl)pyrimidin-2-amine]: the remaining activity at 1 µM on CDK1/CyclinB stood at 52%; at CDK4/CyclinD1, 65%; on CDK6/CyclinD3 it was 23%. Further, the pKi on CDK2/CyclinA2 was 6.28; at CDK7/CyclinH/Mat1, 6.65; on CDK9/CyclinT1, 7.12; on FLT3-ITD, 6.83. In the assay on MV-4-11, the GI50 was found to be 0.056 µM.

For `CN(C)c1ccc(Nc2nccc(-c3cnc4ccc(Br)cn34)n2)cn1` [Compound 65, N^5-(4-(6-Bromoimidazo[1,2-a]pyridin-3-yl)pyrimidin-2-yl)-N^2,N^2-dimethylpyridine-2,5-diamine], the remaining activity at 1 µM on CDK1/CyclinB stood at 56%; at CDK2/CyclinA2, 39%; at CDK4/CyclinD1, 86%; at CDK7/CyclinH/Mat1 it was 71%. Besides, the pKi at CDK6/CyclinD3 is 6.80; on CDK9/CyclinT1, 6.85; at FLT3-ITD, 7.62. Besides, the GI50 in the assay with MV-4-11 came out at 0.041 µM.

As to `CCOc1ccc(Nc2ncc(F)c(-c3cnc4ccc(-c5ccccc5)cn34)n2)cn1` [Compound 31, N-(6-Ethoxypyridin-3-yl)-5-fluoro-4-(6-phenylimidazo[1,2-a]pyridin-3-yl)pyrimidin-2-amine], the remaining activity at 1 µM at CDK1/CyclinB came out at 97%; on CDK2/CyclinA2 it was 55%; at CDK4/CyclinD1 it was 95%; on CDK6/CyclinD3, 41%; at CDK7/CyclinH/Mat1 it was 100%. For the same molecule, the pKi on CDK9/CyclinT1 was under 6.00. Moreover, on FLT3-ITD (compound at 1 μM), the “Residual enzymatic activity (%) at 1 μM, FLT3-ITD” value is 70%. Also, the GI50 in the assay on MV-4-11 was determined as 0.6 µM.

Regarding `c1ccc(-c2ccc3ncc(-c4ccnc(Nc5ccc(N6CCC6)nc5)n4)n3c2)cc1` [Compound 25, N-(6-(Azetidin-1-yl)pyridin-3-yl)-4-(6-phenylimidazo[1,2-a]pyridin-3-yl)pyrimidin-2-amine], the remaining activity at 1 µM at CDK1/CyclinB was determined as 100%; on CDK4/CyclinD1, 94%; at CDK6/CyclinD3, 44%. In addition, the pKi on CDK2/CyclinA2 is 5.96; on CDK7/CyclinH/Mat1, 6.53; on CDK9/CyclinT1 it was 7.02; at FLT3-ITD it was 8.30. Also, the GI50 in the assay on MV-4-11 came out at 0.74 µM.

Take `CC(=O)N1CCN(c2ccc(Nc3nccc(-c4cnc5ccccn45)n3)cn2)CC1` [Compound 41, 1-(4-(5-((4-(Imidazo[1,2-a]pyridin-3-yl)pyrimidin-2-yl)amino)pyridin-2-yl)piperazin-1-yl)ethan-1-one]: the remaining activity at 1 µM at CDK1/CyclinB is 31%; on CDK2/CyclinA2, 22%; at CDK4/CyclinD1, 53%; at CDK6/CyclinD3, 70%; on CDK7/CyclinH/Mat1, 77%. Further, the pKi on CDK9/CyclinT1 is 7.04; at FLT3-ITD, 7.49. The GI50 in the assay with MV-4-11 was 0.027 µM.

Regarding `CCCNc1ccc(Nc2nccc(-c3cnc4ccc(-c5ccccc5)cn34)n2)cn1` [Compound 75, N^5-(4-(6-Phenylimidazo[1,2-a]pyridin-3-yl)pyrimidin-2-yl)-N^2-propylpyridine-2,5-diamine], the remaining activity at 1 µM on CDK1/CyclinB came out at 89%; at CDK2/CyclinA2 it was 100%; on CDK4/CyclinD1, 89%; on CDK6/CyclinD3, 93%; at CDK7/CyclinH/Mat1 it was 80%. Also, the pKi at CDK9/CyclinT1 is 6.43; at FLT3-ITD it was 6.80. In addition, in the assay on MV-4-11, the GI50 was 0.078 µM.

Broadly, the pKi is −log10 of the Ki, conventionally taken in molar units. As usually defined, the GI50 is the concentration giving 50% growth inhibition.
